According to patent publication US20230051589A1, “COMPOUNDS AND COMPOSITIONS FOR TREATING CONDITIONS ASSOCIATED WITH NLRP ACTIVITY” (Novartis AG, priority 2018, published 2023):
Like-named read-outs stand apart in the source and are kept apart here.

Tested on: IL-1β production in PMA-differentiated THP-1 cells
Assay: IL-1β production in PMA-differentiated THP-1 cells stimulated with gramicidin (hTHP-1 assay, 2% fetal bovine serum; Procedures 1-3)
Format: cell-based, human
How it was run: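 PMA-primed THP-1 cells (20 ng/ml PMA, 16-18 h) in RPMI with 2% FBS were pre-incubated with compounds for 1 h, from 100 μM downward in 3-fold steps (0.37% DMSO final), then stimulated with 5 μM gramicidin for 2 h. IL-1β in the supernatant was quantified by HTRF.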

[1] = hTHP-1 assay containing 2% fetal bovine serum, Table B2, class symbols, read-out: IC50
[2] = Table B3, hTHP-1 assay containing 2% fetal bovine serum, gramicidin stimulation, IL-1β readout, read-out: hTHP-1 IC50
[3] = Homo sapiens, THP-1, hTHP-1 assay containing 2% fetal bovine serum, Table B2, class symbols, read-out: IC50
[4] = Homo sapiens, THP-1, Table B3, hTHP-1 assay containing 2% fetal bovine serum, gramicidin stimulation, IL-1β readout, read-out: hTHP-1 IC50

CC(C)(O)c1ncc(S(N)(=O)=NC(=O)Nc2c3c(c(Cl)c4c2CCC4)CCC3)s1 (single isomer, unassigned) [Example 597, (R) or (S)-N′-((8-chloro-1,2,3,5,6,7-hexahydro-s-indacen-4-yl)carbamoyl)-2-(2-hydroxypropan-2-yl)thiazole-5-sulfonimidamide] was tested. Which IC50 [1] did it give?
The IC50 was 40 to 200 nM.

CC(C)c1cc(S(N)(=O)=NC(=O)Nc2c3c(cc4c2CCC4)CCC3)c(F)cn1 (single isomer, unassigned) [Example 554, (S) or (R)-5-fluoro-N′-((1,2,3,5,6,7-hexahydro-s-indacen-4-yl)carbamoyl)-2-isopropylpyridine-4-sulfonimidamide] was tested. Which IC50 [1] did it give?
Its IC50 is 5000 to 30000 nM.

Which IC50 (Table B1, hTHP-1 assay containing 2% fetal bovine serum, gramicidin stimulation, IL-1β readout, read-out: hTHP-1 IC50 (average)) does the source give for CC(C)(O)c1ncc(S(N)(=O)=NC(=O)Nc2c3c(cc4c2C(O)CC4)CCC3)s1 (single isomer, unassigned) [Example 391, (R, R) or (R, S) or (S, S) or (S, R)-N′-((3-hydroxy-1,2,3,5,6,7-hexahydro-s-indacen-4-yl)carbamoyl)-2-(2-hydroxypropan-2-yl)thiazole-5-sulfonimid-amide] here?
The IC50 was 200 to 1000 nM.

NS(=O)(=NC(=O)Nc1c2c(cc3c1CCC3)CCC2)c1cnn2c1OCCC2 (single isomer, unassigned) [Example 569, (R) or (S)-N′-((1,2,3,5,6,7-hexahydro-s-indacen-4-yl)caramoyl)-6,7-dihydro-5H-pyrazolo[5,1 - b][1,3]oxazine-3-sulfonimidamide] was tested. Which IC50 [1] did it give?
The IC50 was 40 to 200 nM.

With CC(C)(O)c1sc(S(N)(=O)=NC(=O)Nc2c3c(cc4c2CCC4)CCC3)cc1-c1ccccc1 (single isomer, unassigned) [Example 801, (S) or (R)-N′-((1,2,3,5,6,7-hexahydro-s-indacen-4-yl)carbamoyl)-5-(2-hydroxypropan-2-yl)-4-phenylthiophene-2-sulfonimidamide] as the compound, how does the IC50 [2] read?
The IC50 was 5000 to 30000 nM.

For NS(=O)(=NC(=O)Nc1c2c(cc3c1CCC3)CCC2)c1ccc(OC(F)F)cc1 (centres unmarked) [Example 493, 4-(Difluoromethoxy)-N′-((1,2,3,5,6,7-hexahydro-s-indacen-4-yl)carbamoyl) benzenesulfonimidamide], which IC50 [3] is on record?
The IC50 was 5000 to 30000 nM.

How did the IC50 [1] turn out when CC(C)(O)c1ccnc(S(N)(=O)=NC(=O)Nc2c3c(c(C#N)c4c2CCC4)CCC3)c1 (centres unmarked) [Example 456, N′-((8-cyano-1,2,3,5,6,7-hexahydro-s-indacen-4-yl)carbamoyl)-4-(2-hydroxypropan-2-yl)pyridine-2-sulfonimidamide] was run?
The IC50 was 200 to 1000 nM.

Which IC50 [2] does the source give for NS(=O)(=NC(=O)Nc1c2c(cc3c1CC3)CCC2)c1nn(C(F)F)cc1F (single isomer, unassigned) [Example 839, (R) or (S)-1-(difluoromethyl)-4-fluoro-N′-((2,4,5,6-tetrahydro-1H-cyclobuta[f]inden-3-yl)carbamoyl)-1H-pyrazole-3-sulfonimidamide] here?
Its IC50 is 40 to 200 nM.

CNCC(C)(C)c1ccc(S(N)(=O)=NC(=O)Nc2c3c(cc4c2CCC4)CCC3)cc1 (single isomer, unassigned) [Example 519, (R) or (S)-N′-((1,2,3,5,6,7-hexahydro-s-indacen-4-yl)carbamoyl)-4-(2-methyl-1-(methylamino)propan-2-yl) benzenesulfonimidamide] was tested. Which IC50 [1] did it give?
Its IC50 is 1000 to 5000 nM.

For COCc1nc(C(C)(C)O)sc1S(N)(=O)=NC(=O)Nc1c2c(c(C#N)c3c1CCC3)CCC2 (single isomer, unassigned) [Example 533, (R) or (S)-N′-((8-cyano-1,2,3,5,6,7-hexahydro-s-indacen-4-yl)carbamoyl)-2-(2-hydroxypropan-2-yl)-4-(methoxymethyl) thiazole-5-sulfonimidamide], which IC50 [1] is on record?
Its IC50 is 200 to 1000 nM.

With CN1CCN(Cc2ccc([S@](N)(=O)=NC(=O)Nc3c4c(cc5c3CCC5)CCC4)cc2)CC1 [Example 707, (R)-N′-((1,2,3,5,6,7-hexahydro-s-indacen-4-yl)carbamoyl)-4-((4-methylpiperazin-1-yl)-methyl)benzenesulfonimidamide] as the compound, how does the IC50 [3] read?
Its IC50 is 1000 to 5000 nM.

With CC(C)(O)c1nc(CO)c(S(N)(=O)=NC(=O)Nc2c3c(cc4c2CCC4)CCC3)s1 (centres unmarked) [Example 475, N′-((1,2,3,5,6,7-hexahydro-s-indacen-4-yl)carbamoyl)-4-(hydroxymethyl)-2-(2-hydroxypropan-2-yl)thiazole-5-sulfonimidamide] as the compound, how does the IC50 [3] read?
Its IC50 is 40 to 200 nM.

Which IC50 (Homo sapiens, THP-1, hTHP-1 assay containing 2% fetal bovine serum, Table B2, given as bound, read-out: IC50) does the source give for NS(=O)(=NC(=O)Nc1c2c(cc3c1CCC3)CCC2)c1ccc(C2CCCC2)nc1 (single isomer, unassigned) [Example 586, (S) or (R)-6-cyclopentyl-N′-((1,2,3,5,6,7-hexahydro-s-indacen-4-yl)carbamoyl)pyridine-3-sulfonimidamide] here?
The IC50 was > 30000 nM.

Which IC50 [1] does the source give for CN(C)Cc1ccc(S(N)(=O)=NC(=O)Nc2c3c(cc4c2CC4)CC3)cc1 (single isomer, unassigned) [Example 582, (R) or (S)-4-((dimethylamino)methyl)-N′-(tricyclo[6.2.0.03,6]deca-1,3(6),7-trien-2-ylcarbamoyl) benzenesulfonimidamide] here?
The IC50 was 200 to 1000 nM.

For CC(C)(O)c1cnc(S(N)(=O)=NC(=O)Nc2c3c(cc4c2C(O)CC4)CCC3)s1 (single isomer, unassigned) [Example 653, (S,S) or (S,R)-N′-((3-hydroxy-1,2,3,5,6,7-hexahydro-s-indacen-4-yl)carbamoyl)-5-(2-hydroxypropan-2-yl)thiazole-2-sulfonimidamide], which IC50 [1] is on record?
The IC50 was 5000 to 30000 nM.

For CC(O)(CO)c1ncc(S(N)(=O)=NC(=O)Nc2c3c(c(C#N)c4c2CCC4)CCC3)s1 (centres unmarked) [Example 437, N′-((8-cyano-1,2,3,5,6,7-hexahydro-s-indacen-4-yl)carbamoyl)-2-(1,2-dihydroxypropan-2-yl)thiazole-5-sulfomidamide], which IC50 [1] is on record?
The IC50 was 1000 to 5000 nM.

For CC(NC1CCC1)c1ccc(S(N)(=O)=NC(=O)Nc2c3c(cc4c2CC4)CCC3)c(F)c1 (single isomer, unassigned) [Example 850, (R, S) or (S, S) -4-(1-(cyclobutylamino)ethyl)-2-fluoro-N′-((2,4,5,6-tetrahydro-1H-cyclobuta[f]inden-3-yl)carbamoyl)benzenesulfonimidamide], which IC50 [2] is on record?
Its IC50 is 5000 to 30000 nM.

Which IC50 [3] does the source give for CC(C)(O)c1ccnc([S@@](N)(=O)=NC(=O)Nc2c3c(c(C#N)c4c2CCC4)CCC3)c1 [Compound 818b] here?
Its IC50 is 200 to 1000 nM.

Which IC50 [1] does the source give for Cc1c(C2CC2)cc2c(c1NC(=O)N=S(N)(=O)c1sc(C(C)(C)O)cc1F)CCC2 (single isomer, unassigned) [Example 685, (R) or (S)-N′-((6-cyclopropyl-5-methyl-2,3-dihydro-1H-inden-4-yl)carbamoyl)-3-fluoro-5-(2-hydroxypropan-2-yl)thiophene-2-sulfonimidamide] here?
Its IC50 is 8 to 40 nM.

With CC(C)(O)c1csc(S(N)(=O)=NC(=O)Nc2c3c(cc4c2CC4)CCC3)c1 (centres unmarked) [Example 467, 4-(2-Hydroxypropan-2-yl)-N′-((2,4,5,6-tetrahydro-1H-cyclobuta[f]inden-3-yl)carbamoyl)thiophene-2-sulfonimidamide] as the compound, how does the IC50 [3] read?
The IC50 was 40 to 200 nM.

For CC(C)(CO)c1ncc([S@@](N)(=O)=NC(=O)Nc2c3c(c(C#N)c4c2CCC4)CCC3)s1 [Compound 913a], which IC50 [3] is on record?
The IC50 was 1000 to 5000 nM.

With CN(Cc1ccc(S(N)(=O)=NC(=O)Nc2c3c(cc4c2CC4)CCC3)c(F)c1)C1CCC1 (single isomer, unassigned) [Example 798, (S) or (R)-4-((cyclobutyl(methyl)amino)methyl)-2-fluoro-N′-((2,4,5,6-tetrahydro-1H-cyclobuta[f]inden-3-yl)carbamoyl)benzenesulfonimidamide] as the compound, how does the IC50 [2] read?
Its IC50 is > 30000 nM.

For NS(=O)(=NC(=O)Nc1c2c(cc3c1CCC3)CCC2)c1cnn2c1OC[C@H](O)C2 (single isomer, unassigned) [Example 516, (S,6R) or (R,6R)-N′-((1,2,3,5,6,7-hexahydro-s-indacen-4-yl)carbamoyl)-6-hydroxy-6,7-dihydro-5H-pyrazolo[5,1-b] [1,3]oxazine-3-sulfonimidamide], which IC50 [1] is on record?
The IC50 was 1000 to 5000 nM.

For NS(=O)(=NC(=O)Nc1c2c(cc3c1CCC3)CCC2)c1ccc([C@H]2CCCN2)s1 (some centres unmarked) [Compound 921e], which IC50 [3] is on record?
The IC50 was 200 to 1000 nM.

For CCn1ccc(S(N)(=O)=NC(=O)Nc2c3c(cc4c2CCC4)CCC3)n1 (centres unmarked) [Example 736, 1-Ethyl-N′-((1,2,3,5,6,7-hexahydro-s-indacen-4-yl)carbamoyl)-1H-pyrazole-3-sulfonimidamide], which IC50 [4] is on record?
The IC50 was 200 to 1000 nM.

How did the IC50 [1] turn out when CC(C)(O)c1csc([S@@](N)(=O)=NC(=O)Nc2c3c(cc4c2C(=O)CC4)CCC3)c1 (single isomer, unassigned) [Example 531, (S) or (R)-4-(2-hydroxypropan-2-yl)-N′-((3-oxo-1,2,3,5,6,7-hexahydro-s-indacen-4-yl)carbamoyl) (thiophene-2 - sulfoniinidamide] was run?
The IC50 was 1000 to 5000 nM.

How did the IC50 [4] turn out when CC(C)(O)c1sc(S(N)(=O)=NC(=O)Nc2c3c(cc4c2CCC4)CCC3)nc1CO (centres unmarked) [Example 767, N′-((1,2,3,5,6,7-hexahydro-s-indacen-4-yl)carbamoyl)-4-(hydroxymethyl)-5-(2-hydroxypropan-2-yl)thiazole-2-sulfonimidamide] was run?
Its IC50 is 40 to 200 nM.

How did the IC50 [2] turn out when NS(=O)(=NC(=O)Nc1c2c(cc3c1CCC3)CCC2)c1ccc([C@H]2CCCN2)s1 (single isomer, unassigned) [Example 824, (S) or (R) -N′-((1,2,3,5,6,7-hexahydro-s-indacen-4-yl)carbamoyl)-5-((R)-pyrrolidin-2-yl)thiophene-2-sulfommidamide] was run?
The IC50 was 5000 to 30000 nM.

CN(C)CC(C)(C)c1ccc(S(N)(=O)=NC(=O)Nc2c3c(cc4c2CCC4)CCC3)cc1 (single isomer, unassigned) [Example 809, (R) or (S)-4-(1-(dimethylamino)-2-methylpropan-2-yl)-N′-((1,2,3,5,6,7-hexahydro-s-indacen-4-yl)carbamoyl)benzenesulfonimidamide] was tested. Which IC50 [2] did it give?
Its IC50 is 200 to 1000 nM.
